Residues, ends and D or L forms follow the SMILES beside them.
Assays:
human hair explants = assay: Growth (length) of isolated human hairs maintained in ex vivo survival; format: cell-based
Experimental: (§1) Study of the stimulating activity of tetrapeptide AcSDKP on the growth of isolated hairs maintained in a state of ex vivo survival. This study was conducted on 66 human hair explants obtained from scalp-plasty.
(§2) Hairs comprised of hair follicles were isolated by micro dissection and individually placed in wells (96-well culture plate) and maintained in survival for 15 days under conventional tissue culturing conditions (37° C., 5% CO2) in Williams medium.
(§3) Tetrapeptide AcSDKP added to the culture medium was tested at three concentrations: 10^−4 M, 10^−7 M and 10^−10 M. Minoxidil (2/1 diamino 6-piperidinopyrimidine 3-oxide) at a concentration of 10^−5 M was used as a positive control.
Culture mediums containing the compounds to be tested were renewed every three days.
Hairs were photographed using a microscope and a CCD camera coupled to acquisition software and archiving.
Each hair was measured on D0, D3, D6, D8, D10, D13 and D15 using a LEICA IM1000 measurement module to give measurements in μm.
Each hair was photographed and its length evaluated using software giving values in μm.

[1] = tested on: cells in mitosis (Ki67) in epithelial sheath of human hair explants; assay: Anti-Ki67 immunolabelling of cells in mitosis along the epithelial sheath of hairs; format: cell-based; conditions: for increase in number of cells in mitosis compared to control hair: D8 of treatment
Experimental: as §1, §2, §3
(§4) On D8 and D15 of treatment, six hairs from each batch (untreated control, Minoxidil, +AcSDKP 10^−4 M, +AcSDKP 10^−7 M, +AcSDKP 10^−10 M) were removed and prepared for histological study.
(§5) Three explants from each batch were fixed in ordinary Bouin and the three other hairs were frozen and stored at −80° C.
In addition to measurements of the length of each hair, the general morphology of each hair was analysed and the expression of laminin 5 and collagen IV, two constituents of the basal membrane, was evaluated. Moreover, immunolabeling with anti-Ki67 antibodies (nuclear protein expressed in growing cells) was carried out of cells in mitosis in order to establish the mitotic index of follicle structures.
This study was conducted on cuts of frozen hairs.

[2] = tested on: epithelial sheaths of human hair explants; assay: General morphology of hair histological cuts stained with Masson Trichromium (neo-keratinocytes); format: cell-based
Experimental: as §1, §2, §3, §4, §5
Analysis of the general morphology of histological cuts stained with Masson Trichromium focusing on the area between the opening of the sebaceous glands and the hair bulb.
Hairs cultured on D0 naturally undergo changes during survival as is observed after an in vivo graft. The restructuring effect of AcSDKP was visualised through the appearance of neo-keratinocytes along the conjunctival sheath which migrate from the bulge and to a lesser extent from the bulb, two regions where stem cells are found. […] This effect leads to clear appearance of neo-keratinocytes along the length of the hair, from the epidermis to the bulb. The structure of the neo-keratinocytes formed in this way is uniform and stratified. It varies as a function of treatment time and AcSDKP concentration. The clearest activity was found on D15 of treatment with AcSDKP at 10^−10 M.

type IV collagen = assay: Immunolabelling of type IV collagen on frozen hair cuts; format: cell-based, human
Experimental: as §1, §2, §3
On D8 and D15 of treatment, six hairs from each batch (untreated control, Minoxidil, +AcSDKP 10^−4 M, +AcSDKP 10^−7 M, +AcSDKP 10^−10 M) were removed and prepared for histological study. […]
In addition to measurements of the length of each hair, the general morphology of each hair was analysed and the expression of laminin 5 and collagen IV, two constituents of the basal membrane, was evaluated. […]
Immunolabelling of type IV collagen was carried out on frozen cuts of the control hairs and hairs treated with AcSDKP or Minoxidil in order to quantify this constituent of the basal membrane which separates the dermal compartment from the epithelial compartment.

laminin 5 = assay: Immunolabelling of laminin 5 in hair cuts; format: cell-based, human
Experimental: Study of the stimulating activity of tetrapeptide AcSDKP on the growth of isolated hairs maintained in a state of ex vivo survival. This study was conducted on 66 human hair explants obtained from scalp-plasty. Hairs comprised of hair follicles were isolated by micro dissection and individually placed in wells (96-well culture plate) and maintained in survival for 15 days under conventional tissue culturing conditions (37° C., 5% CO2) in Williams medium. Tetrapeptide AcSDKP added to the culture medium was tested at three concentrations: 10^−4 M, 10^−7 M and 10^−10 M. Minoxidil (2/1 diamino 6-piperidinopyrimidine 3-oxide) at a concentration of 10^−5 M was used as a positive control. On D8 and D15 of treatment, six hairs from each batch (untreated control, Minoxidil, +AcSDKP 10^−4 M, +AcSDKP 10^−7 M, +AcSDKP 10^−10 M) were removed and prepared for histological study. Three explants from each batch were fixed in ordinary Bouin and the three other hairs were frozen and stored at −80° C. In addition to measurements of the length of each hair, the general morphology of each hair was analysed and the expression of laminin 5 and collagen IV, two constituents of the basal membrane, was evaluated. Moreover, immunolabeling with anti-Ki67 antibodies (nuclear protein expressed in growing cells) was carried out of cells in mitosis in order to establish the mitotic index of follicle structures. Laminin 5, another constituent of the basal membrane, is present in the bulb around the dermal papilla as well as in the median section of hair. […] Nevertheless, expression of laminin 5 was higher on D15 with AcSDKP at 10^−7 M (FIG. 4B).

keratin 19 (CK19) = assay: Immunolabelling of keratin 19 (CK19), epithelial stem cell marker, on frozen hair cuts; format: cell-based, human
Experimental: as §1, §2, §3, §4, §5
Immunolabeling of keratin 19 (CK19) was carried out on frozen cuts of control hairs and hairs treated with AcSDKP or Minoxidil in order to evaluate the proportion of undifferentiated primitive cells (or even stem cells) present in the external epithelial sheaths of the hair follicles. […]

## CC(=O)N[C@@H](CO)C(=O)N[C@@H](CC(=O)O)C(=O)N[C@@H](CCCCN)C(=O)N1CCC[C@H]1C(=O)O [AcSDKP, CH3CO-Ser-Asp-Lys-Pro-OH] (Ac-SDKP-OH)
Human hair explants; AcSDKP 10^−10 M in culture medium, D15 of treatment
  hair growth (length of hair): significantly stimulates hair growth
Human hair explants; AcSDKP at higher concentrations (10^−4 M, 10^−7 M), D15
  hair growth (difference in the hair shafts): no significant difference
[1]; 10^−4 M, D8
  Average number of cells in mitosis per mm of hair: 35.4 per mm of hair
[1]; 10^−4 M, D15
  Average number of cells in mitosis per mm of hair: 23.4 per mm of hair
[1]; 10^−7 M, D8
  Average number of cells in mitosis per mm of hair: 34 per mm of hair
[1]; 10^−7 M, D15
  Average number of cells in mitosis per mm of hair: 21.5 per mm of hair
[1]; 10^−10 M, D8
  Average number of cells in mitosis per mm of hair: 52.6 per mm of hair
[1]; 10^−10 M
  increase in number of cells in mitosis compared to control hair: +300%
[1]; 10^−10 M, D15
  Average number of cells in mitosis per mm of hair: 29.3 per mm of hair
[1]; three concentrations tested (10^−4 M, 10^−7 M, 10^−10 M)
  number of cells in mitosis in treated hair compared to control hair: significantly increases
[2]; 10^−4 M, 10^−7 M and especially 10^−10 M, D15
  thickness of neo-keratinocyte structure: increasingly thicker
[2]; 10^−4 M, D8
  adhesion of epithelial sheaths to collagen: more or less detached
  neo-keratinocyte sites: absent
[2]; two active concentrations (10^−7 M and 10^−10 M), D8
  adhesion of epithelium to the underlying collagen: adheres fully
Type IV collagen; 10^−10 M, D8 and D15
  increase in collagen levels: all the more marked
Type IV collagen; three concentrations tested, as of D8 of treatment
  collagen IV in the bulb and median section of hair: very clear increase
Laminin 5; 10^−7 M, D15
  expression of laminin 5: higher
Laminin 5; 10^−10 M, D8 of treatment
  laminin 5 effect in the median zone of hair: considerably more marked
Laminin 5; following exposure of hair to AcSDKP
  level of laminin 5 in hair structures: significant increase
Keratin 19 (CK19); 10^−10 M, D8 and D15 of treatment
  increase in CK19 levels: maximal
Keratin 19 (CK19); hair kept in survival in the presence of the tetrapeptide
  expression of CK19 compared to control hair and to hair treated with Minoxidil: significantly greater

## Nc1cc(N2CCCCC2)nc(N)[n+]1[O-] [Minoxidil, 2/1 diamino 6-piperidinopyrimidine 3-oxide, reference compound]
[1]; 10^−5 M, D8
  Average number of cells in mitosis per mm of hair: 18.5 per mm of hair
[1]; 10^−5 M
  increase in number of cells in mitosis compared to control hair: +38%
[1]; 10^−5 M, D15
  Average number of cells in mitosis per mm of hair: 23.3 per mm of hair
